The source of these data is US8961944B2, “Use of delta-tocopheryl-carbohydrate as a depigmenting agent” (Pierre Fabre Dermo-Cosmetique, priority 2009, dated 2015).

The test system of assay [1] is B16-F10 cells. Briefly: Inhibition of α-MSH-stimulated melanogenesis (intracellular melanin) in B16-F10 cells. To be noted: for percent inhibition of intracellular melanin / inhibition at 50 µM: 50 μM; for percent inhibition of intracellular melanin / inhibition at 10 µM / inhibition at 50 µM: α-MSH (0.1 μM) stimulation; for inhibition at 10 µM / inhibition at 50 µM: Mus musculus, read-out: percent inhibition of intracellular melanin. The assay is classed as cell-based. As to the method: B16-F10 cells are inoculated in 96-well plates in DMEM (Dulbecco's Modified Eagle's Medium) supplemented with Foetal Calf Serum (FCS) and incubated for 24 hours at 37° C., 5% CO2. Melanogenesis is stimulated by α-MSH (0.1 μM) for 3 or 5 days. Each concentration of active substance is tested in triplicate. Total melanin and intracellular melanin dissolved in lysis buffer are then assayed by reading absorbance at 405 nm. Total proteins are assayed in the lysate according to protocol “SRD/TO/154/012” and the results are expressed in mg melanin/mg proteins. The percentage of activity is calculated as follows: % inhibition=[([…])/NMC]×100 NMC being the normalised mean of the control NMT being the normalised mean of the treated

The conditions of assay [2]: compared with delta-tocopherol; cited from earlier work.
Assay [3] has as its target T1, glucocerebrosidase (Homo sapiens, UniProt P04062).
T1 sequence (P04062 40-536): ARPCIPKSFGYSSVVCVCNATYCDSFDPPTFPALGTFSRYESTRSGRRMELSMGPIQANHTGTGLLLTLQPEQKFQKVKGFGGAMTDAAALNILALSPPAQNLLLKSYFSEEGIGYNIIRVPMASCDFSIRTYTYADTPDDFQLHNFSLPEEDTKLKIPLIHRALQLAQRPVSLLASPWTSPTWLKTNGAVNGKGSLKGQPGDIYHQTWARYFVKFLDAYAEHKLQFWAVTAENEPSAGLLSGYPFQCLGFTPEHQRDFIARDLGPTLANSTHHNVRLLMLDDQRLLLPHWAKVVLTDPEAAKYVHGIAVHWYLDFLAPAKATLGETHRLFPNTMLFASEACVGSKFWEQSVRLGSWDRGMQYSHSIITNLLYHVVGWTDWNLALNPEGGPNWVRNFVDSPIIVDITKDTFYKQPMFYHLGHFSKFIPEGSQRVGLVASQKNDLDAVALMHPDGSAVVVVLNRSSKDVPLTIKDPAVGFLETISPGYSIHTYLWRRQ
To be noted: compared with reference derivative 4-methylumbelliferyl glucopyranoside; cited from earlier work.

Read-outs that look alike come from different tables or passages of the source.

For the compound `Cc1cc(O)cc2c1O[C@](C)(CCC[C@H](C)CCC[C@H](C)CCCC(C)C)CC2` [Delta-tocopherol, delta-tocopherol, reference compound], the “percent inhibition of intracellular melanin” value is reported as 41% in assay [1] (3 days) and 48% in assay [1] (5 days).

Take `Cc1cc(O[C@@H]2O[C@H](CO)[C@@H](O)[C@H](O)[C@H]2O)cc2c1O[C@](C)(CCC[C@H](C)CCC[C@H](C)CCCC(C)C)CC2` [Delta-tocopheryl-glucopyranoside, delta-tocopheryl-glucopyranoside]: the antioxidant capacity entry in assay [2] is given as “weak antioxidant capacity compared to that of delta-tocopherol”. In assay [1] (B16-F10, 72 h, 3 days), the inhibition (commonly the share of the control response that was lost under treatment) at 10 µM turned out to be 22% and the inhibition at 50 µM is 68%. In assay [1] (B16-F10, 120 h, 5 days), the inhibition at 10 µM is 38% and the inhibition at 50 µM was 90%. For the same compound, the depigmenting activity entry in assay [1] (compared with delta-tocopherol (see example 1)) is on record as “quite higher than that of delta-tocopherol”. For the same compound, in assay [3], the “release of delta-tocopherol by enzymatic hydrolysis” value is recorded as “slowly releases delta-tocopherol, with lower kinetics than a reference derivative”.
